Test results reported in patent publication US20050197350A1, “Novel quinoline, tetrahydroquinazoline, and pyrimidine derivatives and methods of treatment related to the use thereof” (TAISHO PHARMACEUTICAL CO., LTD., priority 2003, published 2005).

System: MCH receptors
Experiment: MCH receptor activity class (method not given)
Details: MCH receptor; class by percent of control at 10^-7 M or IC50

| Compound | class |
| --- | --- |
| CCCCc1ccc(NC(=O)N[C@H]2CC[C@@H](Nc3nc4c(c(N(C)C)n3)CCCC4)CC2)cc1 [compound 1897] | 3 (Class 3 The value of percent of control at 10^−7 M was more than 60% or the value of IC50 was more than 200 nM.) |
| CN(C)c1nc(N[C@H]2CC[C@@H](NC(=O)Nc3ccc(-c4ccccc4)cc3)CC2)nc2c1CCCC2 [compound 1898] | 3 (Class 3 The value of percent of control at 10^−7 M was more than 60% or the value of IC50 was more than 200 nM.) |
| COc1ccc(Cl)cc1NC(=O)N[C@H]1CC[C@@H](Nc2nc3c(c(N(C)C)n2)CCCC3)CC1 [compound 1899] | 3 (Class 3 The value of percent of control at 10^−7 M was more than 60% or the value of IC50 was more than 200 nM.) |
| Cc1ccc(Cl)cc1NC(=O)N[C@H]1CC[C@@H](Nc2nc3c(c(N(C)C)n2)CCCC3)CC1 [compound 1900] | 3 (Class 3 The value of percent of control at 10^−7 M was more than 60% or the value of IC50 was more than 200 nM.) |
| CN(C)c1nc(N[C@H]2CC[C@@H](NC(=O)Nc3cc(Cl)ccc3[N+](=O)[O-])CC2)nc2c1CCCC2 [compound 1901] | 3 (Class 3 The value of percent of control at 10^−7 M was more than 60% or the value of IC50 was more than 200 nM.) |
| Cc1ccc(F)cc1NC(=O)N[C@H]1CC[C@@H](Nc2nc3c(c(N(C)C)n2)CCCC3)CC1 [compound 1902] | 3 (Class 3 The value of percent of control at 10^−7 M was more than 60% or the value of IC50 was more than 200 nM.) |
| CN(C)c1nc(N[C@H]2CC[C@@H](NC(=O)Nc3ccc4c(c3)CCC4)CC2)nc2c1CCCC2 [compound 1903] | 3 (Class 3 The value of percent of control at 10^−7 M was more than 60% or the value of IC50 was more than 200 nM.) |
| CN(C)c1nc(N[C@H]2CC[C@@H](NC(=O)Nc3ccc4c(c3)Cc3ccccc3-4)CC2)nc2c1CCCC2 [compound 1904] | 3 (Class 3 The value of percent of control at 10^−7 M was more than 60% or the value of IC50 was more than 200 nM.) |
| CN(C)c1nc(N[C@H]2CC[C@@H](NC(=O)NC3c4ccccc4-c4ccccc43)CC2)nc2c1CCCC2 [compound 1905] | 3 (Class 3 The value of percent of control at 10^−7 M was more than 60% or the value of IC50 was more than 200 nM.) |
| CN(C)c1nc(N[C@H]2CC[C@@H](NC(=O)NCCc3ccccc3)CC2)nc2c1CCCC2 [compound 1906] | 3 (Class 3 The value of percent of control at 10^−7 M was more than 60% or the value of IC50 was more than 200 nM.) |
| CN(C)c1nc(N[C@H]2CC[C@@H](NC(=O)NC3CCCC3)CC2)nc2c1CCCC2 [compound 1907] | 3 (Class 3 The value of percent of control at 10^−7 M was more than 60% or the value of IC50 was more than 200 nM.) |
| COC(=O)c1ccc(NC(=O)N[C@H]2CC[C@@H](Nc3nc4c(c(N(C)C)n3)CCCC4)CC2)cc1 [compound 1908] | 3 (Class 3 The value of percent of control at 10^−7 M was more than 60% or the value of IC50 was more than 200 nM.) |
| CN(C)c1nc(N[C@H]2CC[C@@H](NC(=O)Nc3ccccc3OC(F)(F)F)CC2)nc2c1CCCC2 [compound 1909, N-(cis-4-{[4-(dimethylamino)-5,6,7,8-tetrahydroquinazolin-2-yl]amino}cyclohexyl)-N′-[2-(trifluoromethoxy)phenyl]urea] | 2 (Class 2: The value of percent of control at 10^−7 M was from 40% to 60% or the value of IC′50 was from 50 nM to 200 nM.) |
| CCCCOC(=O)c1ccccc1NC(=O)N[C@H]1CC[C@@H](Nc2nc3c(c(N(C)C)n2)CCCC3)CC1 [compound 1910] | 3 (Class 3 The value of percent of control at 10^−7 M was more than 60% or the value of IC50 was more than 200 nM.) |
| COC(=O)c1cc(NC(=O)N[C@H]2CC[C@@H](Nc3nc4c(c(N(C)C)n3)CCCC4)CC2)cc(C(=O)OC)c1 [compound 1911] | 3 (Class 3 The value of percent of control at 10^−7 M was more than 60% or the value of IC50 was more than 200 nM.) |
| CN(C)c1nc(N[C@H]2CC[C@@H](NC(=O)Nc3ccc(OC(F)(F)F)cc3)CC2)nc2c1CCCC2 [compound 1912] | 3 (Class 3 The value of percent of control at 10^−7 M was more than 60% or the value of IC50 was more than 200 nM.) |
| CN(C)c1nc(N[C@H]2CC[C@@H](NC(=O)Nc3ccc4c(c3)C(F)(F)OC(F)(F)O4)CC2)nc2c1CCCC2 [compound 1913] | 3 (Class 3 The value of percent of control at 10^−7 M was more than 60% or the value of IC50 was more than 200 nM.) |
| CN(C)c1nc(N[C@H]2CC[C@@H](NC(=O)NCCc3cccs3)CC2)nc2c1CCCC2 [compound 1914] | 3 (Class 3 The value of percent of control at 10^−7 M was more than 60% or the value of IC50 was more than 200 nM.) |
| CN(C)c1nc(N[C@H]2CC[C@@H](NC(=O)Nc3ccccc3C#N)CC2)nc2c1CCCC2 [compound 1915] | 3 (Class 3 The value of percent of control at 10^−7 M was more than 60% or the value of IC50 was more than 200 nM.) |
| CN(C)c1nc(N[C@H]2CC[C@@H](NC(=O)Nc3cccs3)CC2)nc2c1CCCC2 [compound 1916] | 3 (Class 3 The value of percent of control at 10^−7 M was more than 60% or the value of IC50 was more than 200 nM.) |

| Compound | class |
| --- | --- |
| CN(C)c1nc(N[C@H]2CC[C@@H](NC(=O)Nc3ccsc3)CC2)nc2c1CCCC2 [compound 1917] | 3 (Class 3 The value of percent of control at 10^−7 M was more than 60% or the value of IC50 was more than 200 nM.) |
| CN(C)c1nc(N[C@H]2CC[C@@H](NC(=O)Nc3ccc(C(C)(C)C)cc3)CC2)nc2c1CCCC2 [compound 1918] | 3 (Class 3 The value of percent of control at 10^−7 M was more than 60% or the value of IC50 was more than 200 nM.) |
| CN(C)c1nc(N[C@H]2CC[C@@H](NC(=O)Nc3ccc(-c4ccccc4)s3)CC2)nc2c1CCCC2 [compound 1919] | 3 (Class 3 The value of percent of control at 10^−7 M was more than 60% or the value of IC50 was more than 200 nM.) |
| CN(C)c1nc(N[C@H]2CC[C@@H](NC(=O)Nc3cc(F)cc4c3OCOC4)CC2)nc2c1CCCC2 [compound 1920] | 3 (Class 3 The value of percent of control at 10^−7 M was more than 60% or the value of IC50 was more than 200 nM.) |
| CN(C)c1nc(N[C@H]2CC[C@@H](NC(=O)NC3CCN(C(=O)OCc4ccccc4)CC3)CC2)nc2c1CCCC2 [compound 1921] | 3 (Class 3 The value of percent of control at 10^−7 M was more than 60% or the value of IC50 was more than 200 nM.) |
| CN(C)c1ccc(NC(=O)N[C@H]2CC[C@@H](Nc3nc4c(c(N(C)C)n3)CCCC4)CC2)cc1 [compound 1922] | 3 (Class 3 The value of percent of control at 10^−7 M was more than 60% or the value of IC50 was more than 200 nM.) |
| CN(C)c1nc(N[C@H]2CC[C@@H](NC(=O)Nc3cc(Cl)nc(Cl)c3)CC2)nc2c1CCCC2 [compound 1923] | 3 (Class 3 The value of percent of control at 10^−7 M was more than 60% or the value of IC50 was more than 200 nM.) |
| Cc1noc(C)c1NC(=O)N[C@H]1CC[C@@H](Nc2nc3c(c(N(C)C)n2)CCCC3)CC1 [compound 1924] | 3 (Class 3 The value of percent of control at 10^−7 M was more than 60% or the value of IC50 was more than 200 nM.) |
| CC(=O)c1cccc(NC(=S)N[C@H]2CC[C@@H](Nc3nc4c(c(N(C)C)n3)CCCC4)CC2)c1 [compound 1925] | 3 (Class 3 The value of percent of control at 10^−7 M was more than 60% or the value of IC50 was more than 200 nM.) |
| CC(=O)c1ccc(NC(=S)N[C@H]2CC[C@@H](Nc3nc4c(c(N(C)C)n3)CCCC4)CC2)cc1 [compound 1926] | 3 (Class 3 The value of percent of control at 10^−7 M was more than 60% or the value of IC50 was more than 200 nM.) |
| CN(C)c1nc(N[C@H]2CC[C@@H](NC(=S)Nc3cc(C(F)(F)F)cc(C(F)(F)F)c3)CC2)nc2c1CCCC2 [compound 1927] | 3 (Class 3 The value of percent of control at 10^−7 M was more than 60% or the value of IC50 was more than 200 nM.) |
| CN(C)c1nc(N[C@H]2CC[C@@H](NC(=S)NCc3ccccc3)CC2)nc2c1CCCC2 [compound 1928] | 3 (Class 3 The value of percent of control at 10^−7 M was more than 60% or the value of IC50 was more than 200 nM.) |
| CN(C)c1nc(N[C@H]2CC[C@@H](NC(=S)Nc3cccc(Br)c3)CC2)nc2c1CCCC2 [compound 1929] | 3 (Class 3 The value of percent of control at 10^−7 M was more than 60% or the value of IC50 was more than 200 nM.) |
| CCCCNC(=S)N[C@H]1CC[C@@H](Nc2nc3c(c(N(C)C)n2)CCCC3)CC1 [compound 1930] | 3 (Class 3 The value of percent of control at 10^−7 M was more than 60% or the value of IC50 was more than 200 nM.) |
| CN(C)c1nc(N[C@H]2CC[C@@H](NC(=S)NC3CCCCC3)CC2)nc2c1CCCC2 [compound 1931] | 3 (Class 3 The value of percent of control at 10^−7 M was more than 60% or the value of IC50 was more than 200 nM.) |
| CN(C)c1nc(N[C@H]2CC[C@@H](NC(=S)NC3CCCC3)CC2)nc2c1CCCC2 [compound 1932] | 3 (Class 3 The value of percent of control at 10^−7 M was more than 60% or the value of IC50 was more than 200 nM.) |
| CN(C)c1nc(N[C@H]2CC[C@@H](NC(=S)Nc3cccc(Cl)c3)CC2)nc2c1CCCC2 [compound 1933] | 3 (Class 3 The value of percent of control at 10^−7 M was more than 60% or the value of IC50 was more than 200 nM.) |
| CN(C)c1nc(N[C@H]2CC[C@@H](NC(=S)Nc3ccc(Cl)cc3)CC2)nc2c1CCCC2 [compound 1934] | 3 (Class 3 The value of percent of control at 10^−7 M was more than 60% or the value of IC50 was more than 200 nM.) |
| CN(C)c1nc(N[C@H]2CC[C@@H](NC(=S)Nc3cc(F)ccc3F)CC2)nc2c1CCCC2 [compound 1935] | 3 (Class 3 The value of percent of control at 10^−7 M was more than 60% or the value of IC50 was more than 200 nM.) |

Same assay, conditions: class by percent of control at 10^-7 M or IC50

| Compound | class |
| --- | --- |
| Cc1ccc(CNC(=O)N[C@H]2CC[C@@H](Nc3nc4c(c(N(C)C)n3)CCCC4)CC2)cc1 [compound 1895] | 3 (Class 3 The value of percent of control at 10^−7 M was more than 60% or the value of IC50 was more than 200 nM.) |
| CCCCOc1ccc(NC(=O)N[C@H]2CC[C@@H](Nc3nc4c(c(N(C)C)n3)CCCC4)CC2)cc1 [compound 1896] | 3 (Class 3 The value of percent of control at 10^−7 M was more than 60% or the value of IC50 was more than 200 nM.) |
